Reference: patent US20110306671A1, “AMIDE DERIVATIVES OF ETHACRYNIC ACID” (The Regents of the The University of California, priority 2008, published 2011)
Several values for one entry are separate records, joined by “and”; a condition that tells them apart may be missing. Identical values can stand only once.

Columns and labels:
[1] = system: Normal PBMC; test: Cell viability assay (MTT) with normal peripheral blood mononuclear cells; assay type: cell-based, human; settings: Homo sapiens; Normal PBMC from five normal individuals; 48 hours; mean
[2] = system: FOPflash reporter; test: FOPflash reporter assay in HEK293 cells; assay type: cell-based, human; settings: 50 μM EA, 24 hours
Protocol: FIG. 1. Inhibition of Wnt/β-catenin signaling by EA. […] Cells were lysed and luciferase activity was quantified. Total protein levels were determined by Bradford Assay and serve as a control for total cell number. (B) HEK293 cells were co-transfected with TOPflash reporter construct, along with expression plasmids for Wnt1, Wnt3, LRP6, Dvl and β-catenin as indicated. […] (C) HEK293 cells were transfected with FOPflash reporter with or without an expression plasmid for β-catenin. […] (D) HEK293 cells were transfected with NFAT reporter and expression plasmid for NFATc. […] The results are expressed as fold induction of luciferase activity compared to the basal level, and are the means of three experiments±SEM. For screening of the drug library, HEK293 cells were grown for at least 24 hours in 10 cm plates prior to transfection. At 50% confluence, cells were transfected with 5 μg of TOPflash reporter, 1 μg expression vector for Dvl, 1 μg of control plasmid pCMXβgal and carrier DNA pcDNA3 plasmid for a total of 10 μg/plate. After transfection for 24 hours, cells were harvested and dispersed in 96-well microtiter plates. […] Then luciferase values were determined. In the Results section, data are expressed as fold stimulation of luciferase activity compared to the basal level. […]

[3] = system: CLL cells; test: Levels of O2− or H2O2 in CLL cells treated with EA; assay type: cell-based, human; settings: results not shown
[4] = system: SK-Mel-28; test: Cytotoxicity of EA in tumor cell line SK-Mel-28; assay type: cell-based; settings: Homo sapiens, mean of at least two experiments
[5] = system: B16; test: Cytotoxicity of EA in tumor cell line B16; assay type: cell-based; settings: Mus musculus, mean of at least two experiments
[6] = system: lymphoma and myeloma cells; settings: Schmidt et al., 2009; cited from earlier work
[7] = system: Wnt/β-catenin signaling; test: TOPflash reporter assay in SW480 cells; assay type: cell-based, human; settings: 24 hours
Protocol: FIG. 7. EA destabilizes the LEF-1/β-catenin complex. (A) SW480 cells were treated with increasing amounts of EA for 16 hours. Cells were lysed, and IP was completed with anti-β-catenin monoclonal antibody. The immune complexes were analyzed by immunoblotting with anti-LEF-1, anti-α-catenin and anti-β-catenin antibodies. (B) EA inhibits Wnt/β-catenin signaling in SW480 cells. SW480 cells were transfected with TOPflash reporter and control plasmid pCMXβgal. After transfection for 24 hours, cells were treated with increasing concentrations of EA for another 24 hours as indicated. Cells were then harvested and luciferase values were determined. The results are expressed as relative luciferase activity (%) normalized to a β-galactosidase control. For screening of the drug library, HEK293 cells were grown for at least 24 hours in 10 cm plates prior to transfection. At 50% confluence, cells were transfected with 5 μg of TOPflash reporter, 1 μg expression vector for Dvl, 1 μg of control plasmid pCMXβgal and carrier DNA pcDNA3 plasmid for a total of 10 μg/plate. After transfection for 24 hours, cells were harvested and dispersed in 96-well microtiter plates. […] Then luciferase values were determined. In the Results section, data are expressed as fold stimulation of luciferase activity compared to the basal level. […]

[8] = system: MCF-7; test: Cytotoxicity of EA in tumor cell line MCF-7; assay type: cell-based; settings: Homo sapiens, MCF7, mean of at least two experiments
[9] = system: Wnt3a-induced transcription; test: Stable Super8XTOPflash reporter HEK293 cells stimulated with Wnt3a; assay type: cell-based, human
Protocol: FIG. 1. Inhibition of Wnt/β-catenin signaling by EA. […] Cells were lysed and luciferase activity was quantified. Total protein levels were determined by Bradford Assay and serve as a control for total cell number. (B) HEK293 cells were co-transfected with TOPflash reporter construct, along with expression plasmids for Wnt1, Wnt3, LRP6, Dvl and β-catenin as indicated. […] (C) HEK293 cells were transfected with FOPflash reporter with or without an expression plasmid for β-catenin. […] (D) HEK293 cells were transfected with NFAT reporter and expression plasmid for NFATc. […] The results are expressed as fold induction of luciferase activity compared to the basal level, and are the means of three experiments±SEM. The Super8XTOPflash construct (kindly provided by Dr. R. Moon) was stably transfected into HEK293 cells, and single cell clones were isolated. […] (2003) and Willert et al. (2008).

[10] = continuous i.v. infusion, cited from earlier work
[11] = system: HCT116; test: Cytotoxicity of EA in tumor cell line HCT116; assay type: cell-based; settings: Homo sapiens, HCT-116, mean of at least two experiments

C=C(CC)C(=O)c1ccc(OCC(=O)O)c(Cl)c1Cl [Compound 1, Ethacrynic acid]
IC50 [1]: 34.8 µM
effect on the FOPflash reporter [2]: no effect
levels of O2− or H2O2 in CLL cells [3]: no significant increase
IC50 [4]: 122 µM
IC50 [5]: 201 µM
induction of apoptosis [6]: significant induction of apoptosis
concentrations with dose-dependent inhibition of TOPflash activity [7]: ≥ 60 µM
IC50 [8]: 63 µM
IC50 ([9]; Homo sapiens, HEK293, read-out: IC50 for inhibition of Wnt3A-induced transcription): ~25 µM
effect on Wnt3a-induced transcription of the SuperTOPflash reporter ([9]; Wnt3a 10 nM, EA 20-35 μM, 18 hours): blocked Wnt3a-induced transcription in a dose-dependent manner
time for which plasma concentrations are sustained ([10]; above 1 μg/ml): up to 3 hours
sustained plasma concentrations ([10]; listed as EA): greater than 1 μg/ml and > 3.3 μM
IC50 [11]: 58 µM
